Measured values as given in patent publication US20180016593A1, “HERBICIDE-RESISTANT SUNFLOWER PLANTS, POLYNUCLEOTIDES ENCODING HERBICIDE-RESISTANT ACETOHYDROXYACID SYNTHASE LARGE SUBUNIT PROTEINS, AND METHODS OF USE” (priority 2005, published 2018).
Where “and” joins values, the source holds several entries; their conditions need not be identical. Equal values may be shown once. Read-outs that look alike come from different tables or passages of the source.

Legend:
[1] = tested on: sunflower lines carrying the A122T mutation; type: in vivo, Helianthus annuus; conditions: 14 DAT; for biomass accumulation, Mean / plant height, Mean / root dry weight, Mean: six A122T genotypes; for Phytotoxicity Index, Mean: three A122T genotypes
Experimental: (§1) A greenhouse study was conducted to quantify and contrast the imazapir sensivity of the mutants A122T and A205V in different genetic backgrounds at the whole plant level in sunflower. Seeds of the different sunflower lines that were used in this study were obtained under field conditions.
(§2) Seeds were sown in Petri dishes and, after germination, plantlets were transplanted to pots of 10 cm of diameter in a potting media consisting of equal parts of vermiculite, soil and sand. Plants were grown in a greenhouse under natural light conditions supplemented with 400 W sodium halide lamps to provide a 16 hrs daylength. Day/night temperatures were 25 and 20° C., respectively. At the V2 stage 10 plants of each genotype were randomly assigned to each treatment consisting of […] imazapir doses (0, 40, 80, 160, 240, 320, 400 and 480 g ai/ha), and a zero-time biomass determination. Experiment was arranged as a randomized block design with a full factorial (sunflower line×treatment) arrangement of treatments and 10 replications.
(§3) On the day of herbicide application ten plants of each genotype were cut at the cotyledonal node and dried at 60° C. for 48 hrs zero-time for dried weight determination.
(§4) Height was determined as the distance between the cotyledonal node and the apex of each plant. For root biomass determination, each plant was taken from the pot and the potting media was washed out from the roots. Above ground biomass data from each line were converted to biomass accumulation after application by subtracting the appropriate average zero-time biomass from each sample. Dry biomass data were converted to percentages of the untreated control plants within each line to allow direct comparisons between groups. […]

[2] = tested on: sunflower lines carrying the A205V mutation; type: in vivo, Helianthus annuus; conditions: 14 DAT; for biomass accumulation, Dif with Control / plant height, Dif with Control / root dry weight, Dif with Control: A205V mean; for biomass accumulation, Mean / root dry weight, Mean / plant height, Mean: six A205V genotypes; for Phytotoxicity Index, Mean: three A205V genotypes
Experimental: as §1, §2, §3, §4

## CC(C)C1(C)N=C(c2ncccc2C(=O)O)NC1=O (stereo not shown) [imazapyr]
[1]; 4x (320 g ai/ha)
  biomass accumulation, Mean: 87.8 % of untreated plots
  plant height, Mean: 93.7 % of untreated plots
  root dry weight, Mean: 81.4 % of untreated plots
  Phytotoxicity Index, Mean: 0.5
[1]; 5x (400 g ai/ha)
  biomass accumulation, Mean: 79.3 % of untreated plots
  plant height, Mean: 89.8 % of untreated plots
  root dry weight, Mean: 78.7 % of untreated plots
  Phytotoxicity Index, Mean: 0.8
[1]; 6x (480 g ai/ha)
  biomass accumulation, Mean: 74.6 % of untreated plots
  plant height, Mean: 84.2 % of untreated plots
  root dry weight, Mean: 61.7 % of untreated plots
  Phytotoxicity Index, Mean: 1.2
[1]; 0.5x (40 g ai/ha)
  Phytotoxicity Index, Mean: 0.3
[1]; 1x (80 g ai/ha)
  Phytotoxicity Index, Mean: 0.3
[1]; 2x (160 g ai/ha)
  Phytotoxicity Index, Mean: 0.3
[1]; 3x (240 g ai/ha)
  Phytotoxicity Index, Mean: 0.3
[2]; 0.5x (40 g ai/ha)
  biomass accumulation, Dif with Control: 5.5 % of untreated plots
  plant height, Dif with Control: 5.6 % of untreated plots
  root dry weight, Dif with Control: 12.8 % of untreated plots
  biomass accumulation, Mean: 94.5 % of untreated plots
  root dry weight, Mean: 87.2 % of untreated plots
[2]; 1x (80 g ai/ha)
  biomass accumulation, Dif with Control: 17.8 % of untreated plots
  plant height, Dif with Control: 10.8 % of untreated plots
  root dry weight, Dif with Control: 29.2 % of untreated plots
  biomass accumulation, Mean: 82.2 % of untreated plots
  root dry weight, Mean: 70.8 % of untreated plots
[2]; 2x (160 g ai/ha)
  biomass accumulation, Dif with Control: 38.4 % of untreated plots
  plant height, Dif with Control: 30.8 % of untreated plots
  root dry weight, Dif with Control: 49.4 % of untreated plots
  biomass accumulation, Mean: 61.6 % of untreated plots
  plant height, Mean: 69.2 % of untreated plots
  root dry weight, Mean: 50.6 % of untreated plots
  Phytotoxicity Index, Mean: 2.2
[2]; 3x (240 g ai/ha)
  biomass accumulation, Dif with Control: 52.4 % of untreated plots
  plant height, Dif with Control: 49.6 % of untreated plots
  root dry weight, Dif with Control: 60.8 % of untreated plots
  biomass accumulation, Mean: 47.6 % of untreated plots
  plant height, Mean: 50.4 % of untreated plots
  root dry weight, Mean: 39.2 % of untreated plots
  Phytotoxicity Index, Mean: 5.1
[2]; 4x (320 g ai/ha)
  biomass accumulation, Dif with Control: 64.6 % of untreated plots
  plant height, Dif with Control: 66.3 % of untreated plots
  root dry weight, Dif with Control: 68.9 % of untreated plots
  biomass accumulation, Mean: 35.4 % of untreated plots
  plant height, Mean: 33.7 % of untreated plots
  root dry weight, Mean: 31.1 % of untreated plots
  Phytotoxicity Index, Mean: 7.4
[2]; 5x (400 g ai/ha)
  biomass accumulation, Dif with Control: 67.6 % of untreated plots
  plant height, Dif with Control: 68.0 % of untreated plots
  root dry weight, Dif with Control: 69.3 % of untreated plots
  biomass accumulation, Mean: 32.4 % of untreated plots
  plant height, Mean: 32.0 % of untreated plots
  root dry weight, Mean: 30.7 % of untreated plots
  Phytotoxicity Index, Mean: 8.2
[2]; 6x (480 g ai/ha)
  biomass accumulation, Dif with Control: 70.0 % of untreated plots
  root dry weight, Dif with Control: 75.6 % of untreated plots
  biomass accumulation, Mean: 30.0 % of untreated plots
  plant height, Mean: 30.2 % of untreated plots
  root dry weight, Mean: 24.4 % of untreated plots
  Phytotoxicity Index, Mean: 8.2
[2]; 6x (480 g ai/ha), listed as imazapir
  plant height, Dif with Control: 68.9 % of untreated plots and 69.8 % of untreated plots
